Results taken from patent US7314958B2, “Phenylbenzamides” (Bayer CropScience AG, priority 2002, dated 2008).

Experiments:
Assay type in all cases: in vivo
[1] = test system: Botrytis cinerea; assay: Botrytis test (bean)/protective; conditions: protective, application rate 500 g/ha, evaluation 2 days after inoculation
Procedure: Botrytis Test (Bean)/Protective • Solvent: 49 parts by weight of N,N-dimethylformamide • Emulsifier: 1 part by weight of alkylaryl polyglycol ether To produce a suitable preparation of active compound, 1 part by weight of active compound is mixed with the stated amounts of solvent and emulsifier, and the concentrate is diluted with water to the desired concentration. To test for protective activity, young plants are sprayed with the preparation of active compound at the stated application rate. After the spray coating has dried on, 2 small pieces of agar colonized by Botrytis cinerea are placed onto each leaf. The inoculated plants are placed in a dark chamber at about 20° C. and 100% relative atmospheric humidity. 2 days after the inoculation, the size of the infected areas on the leaves is evaluated. 0% means an efficacy which corresponds to that of the control, whereas an efficacy of 100% means that no infection is observed.

[2] = test system: Alternaria solani; assay: Alternaria test (tomato)/protective; conditions: protective, application rate 750 g/ha, evaluation 7 days after inoculation
[3] = test system: Erysiphe graminis f. sp. hordei; assay: Erysiphe test (barley)/protective; conditions: protective, application rate 750 g/ha, evaluation 7 days after inoculation

| Structure (SMILES) | Efficacy in % [2] [%] | Efficacy in % [3] [%] | other results |
| --- | --- | --- | --- |
| CC(C)CC(C)c1ccccc1NC(=O)c1ccccc1I (centres unmarked) [drawing 15] | – | – | Efficacy in % [1]: 93% |
| CC(C)CC(C)c1ccccc1NC(=O)c1ccccc1C(F)(F)F (centres unmarked) [drawing 16] | 100 | – | – |
| CC(C)CC(C)c1ccccc1NC(=O)c1ccccc1I (centres unmarked) [drawing 17] | 100 | – | – |
| CC(C)CC(C)c1ccccc1NC(=O)c1ccccc1C(F)(F)F (centres unmarked) [drawing 18] | – | 95 | – |
| CC(C)CC(C)c1ccccc1NC(=O)c1ccccc1I (centres unmarked) [drawing 19] | – | 95 | – |
